In one series the target is IGPD (Rv1601) (Mycobacterium tuberculosis, UniProt P9WML9). In words: IGPD stopped-assay, IC50 study. It counts as biochemical.
The subject of series [1] is Mtb H37Rv. Nature of the series: Resazurin assay (REMA) / alamarBlue MIC. It is filed as cell-based. To be noted: Mycobacterium tuberculosis, minimal media. (In general: The colour change of resazurin is a common sign of viable cells or microbes.)
Series [2] relates to Mtb H37Rv in RAW 264.7 macrophages. Nature of the series: Efficacy testing in Mtb infected macrophage model. It counts as cell-based, Mycobacterium tuberculosis. To be noted: RAW 264.7, MOI=10, 3 days of treatment, 0-240 μM.
Series [3] is described as follows: Acute oral toxicity study (OECD 425), 14 days. To be noted: for serum levels of SGOT, SGPT, creatinine, and urea compared to the untreated group: all doses, day 14; for LD50: oral, single dose, mice; for body weight compared to the untreated group: single oral dose, female mice, monitored for 14 days. On the procedure:
Healthy CD-1 female mice with weight 34±4 grams were used. The animals were housed individually in cages and maintained in a standard laboratory environment. […] A limit dose of 2000 mg/kg body weight of compound was used involving three mice. Each mouse was treated with a single oral dose of 5, 50, 500, 2000 mg/kg body weight on Day 0. Animals were observed individually at least once during the first 30 min after dosing, periodically during the first 24 h and daily thereafter, for a total of 14 days for any clinical signs of toxicity or mortality. At the end of 14 day's observation period, the animals were anaesthetized, and their blood samples were collected through retro orbital bleeding for biochemical and histopathological studies, respectively. For biochemical analysis, blood was centrifuged at 4000 rpm at 4° C. for 10 min, serum was separated and Serum Glutamate Pyruvic Transaminase (SGPT), Serum Glutamate Oxaloacetic Transaminase (SGOT), creatinine, and, urea were estimated using a semi-automated Biochemical coralyzer. For histopathological studies, the animals were euthanized and the livers and kidneys were harvested and examined macroscopically. These organs were then preserved in 10% formalin made in PBS for histopathological examinations by standard techniques.
For this, the liver and kidney tissue samples were embedded into wax blocks. The wax blocks were subjected to microtome to generate sections, which were then stained with Hematoxylin and Eosin dyes at a commercial facility. The tissue sections were viewed in a bright field microscope at 40× magnification.

In series [4] the test system is Mtb H37Rv. On the set-up: species or system Mycobacterium tuberculosis. Conditions: in vivo; for bacterial burden in lungs vs untreated control (CFU) / bacterial burden in spleen vs untreated control (CFU): 100 mg/kg.
Where [5] appears, read: single oral dose 5 mg/kg, 5 mice initial, 14 days.
Where [6] appears, read: single oral dose 5 mg/kg, 5 mice, 14 days.
The mark [7] stands for this setting: single oral dose 50 mg/kg, 5 mice initial, 14 days.
The mark [8] stands for this setting: single oral dose 50 mg/kg, 5 mice, 14 days.
[9] abbreviates: single oral dose 500 mg/kg, 5 mice initial, 14 days.
Where [10] appears, read: single oral dose 500 mg/kg, 5 mice, 14 days.
Where [11] appears, read: female, CD-1, mouse, in vivo, po, 2000 mg/kg, 14 days.

Usually IC50 stands for the midpoint of a concentration-inhibition curve. A low value points to higher potency. One may read the MIC99 as an inhibitory concentration at the 99% level, which refers to growth in some studies and to a panel of isolates in others. Read a high MIC99 as weaker potency.

Values after ≈ are worked out from the molar mass of the structure shown.

IGPD (Rv1601), sequence (P9WML9 whole entry, looked up): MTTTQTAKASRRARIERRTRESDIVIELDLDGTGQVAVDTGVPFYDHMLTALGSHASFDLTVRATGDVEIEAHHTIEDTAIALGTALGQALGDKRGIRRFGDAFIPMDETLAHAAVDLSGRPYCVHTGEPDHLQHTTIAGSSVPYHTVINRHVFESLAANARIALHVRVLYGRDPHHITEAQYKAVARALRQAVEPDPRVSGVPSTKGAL

`NCCSc1ncn[nH]1` [SF3, 2-(1H-1,2,4-triazol-5-ylsulfanyl)ethanamine]: the midpoint of inhibition at IGPD (Rv1601), the IC50, lay at 76.9 µM. In addition, the MIC99 against Mtb H37Rv [1] worked out at 500 µM (≈ 72.1 µg/mL). In addition, the “bacterial load in Mtb infected macrophages (CFU)” value in series [2] is recorded as “did not reduce the bacterial load”. In series [3], the “serum levels of SGOT, SGPT, creatinine, and urea compared to the untreated group” value is on record as “no significant changes”. For the same compound, in series [3] (mouse, in vivo), the “kidney histology (H&E)” value was “no pathological changes”. Also, in series [3] (mouse, in vivo), the “liver histology (H&E), FIG. 11” value was “no pathological changes”. The “clinical signs in surviving mice” value in series [3] (oral 5, 50, 500 and 2000 mg/kg body weight, 14 days) is “no clinical signs of adverse effects/toxicity”. Moreover, in series [3], the LD50 entry is “below 5000 mg/kg body weight”. For the same compound, in series [3] (single dose of 5000 mg/kg, after 12-24 h), the clinical signs entry was “slowness and weight decline”. Moreover, the Mice number final was 5 in series [3] (setting [5]); 5 in series [3] (setting [7]); 5 in series [3] (setting [9]); 3 in series [3] (single oral dose 2000 mg/kg, 5 mice initial, 14 days); 2 in series [3] (single oral dose 5000 mg/kg, 5 mice initial, 14 days). The “Total Deaths (D)” value amounted to 0 in series [3] (setting [6]); 0 in series [3] (setting [8]); 0 in series [3] (setting [10]); 2 in series [3] (single oral dose 2000 mg/kg, 5 mice, 14 days); 3 in series [3] (single oral dose 5000 mg/kg, 5 mice, 14 days). The “body weight compared to the untreated group” value in series [3] was “decreased for 5, 500, and 2000 mg/kg body weight and increased for 5000 mg/kg body weight”. The “bacterial burden with supplementation of histidine” value in the series on Mtb H37Rv [4] is recorded as “restored the bacterial burden to the untreated levels”. Besides, in the series with Mtb H37Rv [4] (po), the “bacterial burden in lungs vs untreated control (CFU)” value is reported as “significant lowering of the bacterial burden”. The “bacterial burden in spleen vs untreated control (CFU)” value in the series on Mtb H37Rv [4] (po) is “significant lowering of the bacterial burden”.
For `CC(C)C(N)c1ncnn1C` (centres unmarked) [SF2, 2-methyl-1-(2-methyl-1,2,4-triazol-3-yl)propan-1-amine], the midpoint of inhibition at IGPD (Rv1601), the IC50, lay at 44.1 µM. Also, the MIC99 in the series with Mtb H37Rv [1] was 125 µM (≈ 19.3 µg/mL). In series [2], the “bacterial load in Mtb infected macrophages (CFU)” value was “hundred-fold decline”. In series [3], the “serum levels of SGOT, SGPT, creatinine, and urea compared to the untreated group” value is “no significant changes”; the LD50 entry is reported as “greater than 2000 mg/kg body weight”; the “body weight compared to the untreated group” value is reported as “increased for all doses while a slight dip in weight for 5 mg/kg body weight on 7th day was observed”. Moreover, in series [3] (setting [11]), the Mice number final worked out at 5 and the “Total Deaths (D)” value turned out to be 0. In series [3] (mouse, in vivo), the “clinical signs in surviving mice” value was “no clinical signs of adverse effects/toxicity”; the “kidney histology (H&E)” value is “no pathological changes”; the “liver histology (H&E), FIG. 11” value is listed as “no pathological changes”. Also, the Mice number final in series [3] (setting [5]) worked out at 5. Also, the “Total Deaths (D)” value in series [3] (setting [6]) came to 0. The compound further returned a Mice number final in series [3] (setting [7]) of 5. Moreover, the “Total Deaths (D)” value in series [3] (setting [8]) is given as 0. Besides, the Mice number final in series [3] (setting [9]) amounted to 5. Moreover, in series [3] (setting [10]), the “Total Deaths (D)” value was determined as 0. In the series with Mtb H37Rv [4], the “bacterial burden with supplementation of histidine” value was “restored the bacterial burden to the untreated levels”. In the series with Mtb H37Rv [4] (po), the “bacterial burden in lungs vs untreated control (CFU)” value is given as “no reduction in the bacterial burden” and the “bacterial burden in spleen vs untreated control (CFU)” value is recorded as “no reduction in the bacterial burden”. In the series with Mtb H37Rv [4] (po, 200 mg/kg), the “bacterial load in lungs vs untreated control (CFU)” value is “significant decrease in the bacterial load” and the “reduction in the bacterial load in spleen vs untreated control (CFU)” value is “not found to be statistically significant”.
In turn, `CC(N)c1ncnn1C` (centres unmarked) [SF1, 1-(2-methyl-1,2,4-triazol-3-yl)ethanamine] gave an IC50 on IGPD (Rv1601) of 33.5 µM. For the same compound, the MIC99 against Mtb H37Rv [1] is 31.2 µM (≈ 3.94 µg/mL). For the same compound, in series [2], the “bacterial load in Mtb infected macrophages (CFU)” value is “approximately a thousand-fold decline”. Also, in the series with Mtb H37Rv [4] (po), the “bacterial burden in lungs vs untreated control (CFU)” value is given as “no reduction in the bacterial burden” and the “bacterial burden in spleen vs untreated control (CFU)” value is “no reduction in the bacterial burden”.

(Values after patent US20250388554A1, “ANTIBACTERIAL COMPOUNDS, METHOD OF PRODUCTION AND USE THEREOF” (priority 2024, published 2025).)
